Source: US8952024B2, “Herbicidal pyrimidone derivatives” (E I du Pont de Nemours and Company, priority 2009, dated 2015)

Tests used:
Format in all cases: in vivo
[1] = system: canarygrass (Phalaris minor); experiment: Test B postemergence plant response; conditions: for Canarygrass plant response rating (0 to 100 scale): 62 g ai/ha, 0 is no effect, 13 to 15 days
Method in brief: (§1)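 Plants at the 1- to 4-leaf stage (2 to 18 cm tall), grown in pots of peat moss/vermiculite medium with wetting agent and starter nutrients, received postemergence applications of test chemicals. After 13 to 15 days in a greenhouse, injury was rated visually against untreated controls on a 0 (no effect) to 100 (complete control) scale.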

[2] = system: windgrass (Apera spica-venti); experiment: Test B postemergence plant response; conditions: for Windgrass plant response rating (0 to 100 scale): 62 g ai/ha, 0 is no effect, 13 to 15 days
Method in brief: as §1

[3] = system: chickweed (Stellaria media); experiment: Test B postemergence plant response; conditions: for Chickweed plant response rating (0 to 100 scale): 62 g ai/ha, 0 is no effect, 13 to 15 days
Method in brief: as §1

[4] = system: ducksalad (Heteranthera limosa); experiment: Test B flooded paddy test; conditions: for Plant response rating, Flood, Ducksalad: 250 g ai/ha, flooded paddy test, visual rating on 0 to 100 scale (0 no effect, 100 complete control) after 13 to 15 days; for Plant response rating, Ducksalad: Flood (flooded paddy test), 13 to 15 days
Method in brief: (§2)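 Rice, umbrella sedge, ducksalad and barnyardgrass were grown to the 2-leaf stage, flooded to 3 cm, and compound was applied directly to the paddy water, with that depth kept throughout. After 13 to 15 days in the greenhouse, plants were visually rated against controls on a 0 (no effect) to 100 (complete control) scale.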

rice (Oryza sativa) = experiment: Test B flooded paddy test; conditions: for Plant response rating, Flood, Rice: 250 g ai/ha, flooded paddy test, visual rating on 0 to 100 scale (0 no effect, 100 complete control) after 13 to 15 days; for Plant response rating, Rice: Flood (flooded paddy test), 13 to 15 days
Method in brief: as §2

[5] = system: barnyardgrass (Echinochloa crus-galli); experiment: Test A pre-/postemergence plant response
Method in brief: (§3)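 Injury scores (0, no effect; 100, complete control) come from visual comparison with untreated controls roughly ten days post-treatment. Test chemicals in a surfactant-containing non-phytotoxic solvent were applied as a directed soil spray preemergence and to one- to two-leaf seedlings postemergence.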

[6] = system: pigweed (Amaranthus retroflexus); experiment: Test A pre-/postemergence plant response
Method in brief: as §3

[7] = system: morningglory (Ipomoea spp.); experiment: Test A pre-/postemergence plant response
Method in brief: as §3

[8] = system: velvetleaf (Abutilon theophrasti); experiment: Test A pre-/postemergence plant response
Method in brief: as §3

[9] = system: large crabgrass (Digitaria sanguinalis); experiment: Test A pre-/postemergence plant response
Method in brief: as §3

[10] = system: wheat (Triticum aestivum); experiment: Test A pre-/postemergence plant response
Method in brief: as §3

corn (Zea mays) = experiment: Test A pre-/postemergence plant response
Method in brief: as §3

[11] = system: giant foxtail (Setaria faberii); experiment: Test A pre-/postemergence plant response
Method in brief: as §3

[12] = 31 g ai/ha, postemergence, scale 0 to 100, 0 is no effect, 100 is complete control
[13] = postemergence, 100 is complete control
[14] = Postemergence, 125 g ai/ha, scale 0 to 100 (0 no effect, 100 complete control)
[15] = Postemergence, 250 g ai/ha, scale 0 to 100 (0 no effect, 100 complete control)
[16] = 62 g ai/ha, scale of 0 to 100 where 0 is no effect and 100 is complete control
[17] = Postemergence, 125 g ai/ha, 0 to 100 scale where 0 is no effect and 100 is complete control
[18] = Postemergence, 500 g ai/ha, 0 to 100 scale, 0 = no effect, 100 = complete control, approx. ten days
[19] = Preemergence, 125 g ai/ha, 0 to 100 scale, 0 = no effect, 100 = complete control
[20] = Preemergence, 500 g ai/ha, visual injury, 0 to 100 scale (0 no effect, 100 complete control), approx. ten days
[21] = Postemergence, 125 g ai/ha, visual rating after 13 to 15 days, scale 0 (no effect) to 100 (complete control)
[22] = 125 g ai/ha, scale 0 to 100, 0 is no effect, 100 is complete control
[23] = Flood, 31 g ai/ha, scale 0 to 100 (0 no effect, 100 complete control)

COCCCn1c(-c2cc(F)cc(F)c2)ncc(C(=O)C2=C(O)CCCC2=O)c1=O [Compound 120]
0: Plant response rating, Canarygrass [1, 12] | Plant response rating, Rice (rice (Oryza sativa); [16]) | Plant response rating, Wheat [10, 19]
70: Plant response rating, Barnyardgrass [5, 19] | Plant response rating, Wheat [10, 18] | Plant response rating, Wheat [10, 20]
85: Plant response rating, Chickweed [3, 14] | Plant response rating, Flood, Ducksalad [4]
80: Windgrass plant response rating (0 to 100 scale) [2, 13] | Plant response rating, Velvetleaf [8, 19] | Plant response rating, Foxtail, Giant [11, 17]
90: Plant response rating, Windgrass [2, 14] | Plant response rating, Barnyardgrass [5, 17] | Plant response rating, Barnyardgrass [5, 18] | Plant response rating, Pigweed [6, 17] | Plant response rating, Morningglory [7, 20] | Plant response rating, Crabgrass, Large [9, 17] | Plant response rating, Foxtail, Giant [11, 18] | Plant response rating, Foxtail, Giant [11, 19]
75: Chickweed plant response rating (0 to 100 scale) [3, 13]
100: Plant response rating, Chickweed [3, 15] | Plant response rating, Barnyardgrass [5, 20] | Plant response rating, Pigweed [6, 18] | Plant response rating, Pigweed [6, 19] | Plant response rating, Pigweed [6, 20] | Plant response rating, Morningglory [7, 17] | Plant response rating, Morningglory [7, 18] | Plant response rating, Velvetleaf [8, 17] | Plant response rating, Velvetleaf [8, 18] | Plant response rating, Velvetleaf [8, 20] | Plant response rating, Crabgrass, Large [9, 18] | Plant response rating, Crabgrass, Large [9, 19] | Plant response rating, Crabgrass, Large [9, 20] | Plant response rating, Foxtail, Giant [11, 20]
40: Plant response rating, Flood, Rice (rice (Oryza sativa))
60: Plant response rating, Chickweed [3, 12]
30: Canarygrass plant response rating (0 to 100 scale) [1, 13] | Plant response rating, Ducksalad [4, 16] | Plant response rating, Morningglory [7, 19] | Plant response rating, Corn (corn (Zea mays); [20])
10: Plant response rating, Corn (corn (Zea mays); [17])
50: Plant response rating, Corn (corn (Zea mays); [18])
55: Plant response rating, Canarygrass [1, 14] | Plant response rating, Canarygrass [1, 15]
20: Plant response rating, Wheat [10, 17] | Plant response rating, Corn (corn (Zea mays); [19])

Cc1ccc(-c2ncc(C(=O)C3=C(O)CCCC3=O)c(=O)n2-c2ccccc2)cc1 [Compound 80]
50: Canarygrass plant response rating (0 to 100 scale) [1, 13] | Plant response rating, Canarygrass [1, 21] | Plant response rating, Windgrass [2, 12] | Plant response rating, Velvetleaf [8, 19] | Plant response rating, Crabgrass, Large [9, 19] | Plant response rating, Corn (corn (Zea mays); [18])
15: Plant response rating, Flood, Rice (rice (Oryza sativa))
100: Plant response rating, Chickweed [3, 21] | Plant response rating, Chickweed [3, 15] | Plant response rating, Pigweed [6, 17] | Plant response rating, Pigweed [6, 18] | Plant response rating, Morningglory [7, 17] | Plant response rating, Morningglory [7, 18] | Plant response rating, Velvetleaf [8, 17] | Plant response rating, Velvetleaf [8, 18] | Plant response rating, Velvetleaf [8, 20]
80: Plant response rating, Windgrass [2, 15] | Plant response rating, Barnyardgrass [5, 18]
10: Plant response rating, Barnyardgrass [5, 20] | Plant response rating, Foxtail, Giant [11, 19]
60: Windgrass plant response rating (0 to 100 scale) [2, 13] | Plant response rating, Pigweed [6, 19] | Plant response rating, Foxtail, Giant [11, 20]
98: Chickweed plant response rating (0 to 100 scale) [3, 13]
0: Ducksalad plant response rating [4, 23] | Plant response rating, Rice (rice (Oryza sativa); [16]) | Plant response rating, Rice (rice (Oryza sativa); [22]) | Rice plant response rating (rice (Oryza sativa); [23]) | Plant response rating, Barnyardgrass [5, 19] | Plant response rating, Morningglory [7, 19] | Plant response rating, Wheat [10, 17] | Plant response rating, Wheat [10, 18] | Plant response rating, Wheat [10, 19] | Plant response rating, Wheat [10, 20] | Plant response rating, Corn (corn (Zea mays); [17]) | Plant response rating, Corn (corn (Zea mays); [19]) | Plant response rating, Corn (corn (Zea mays); [20])
70: Plant response rating, Canarygrass [1, 15] | Plant response rating, Windgrass [2, 21] | Plant response rating, Crabgrass, Large [9, 17] | Plant response rating, Foxtail, Giant [11, 17]
20: Plant response rating, Ducksalad [4, 16]
90: Plant response rating, Chickweed [3, 12] | Plant response rating, Pigweed [6, 20] | Plant response rating, Crabgrass, Large [9, 18] | Plant response rating, Crabgrass, Large [9, 20] | Plant response rating, Foxtail, Giant [11, 18]
45: Plant response rating, Canarygrass [1, 12]
30: Plant response rating, Flood, Ducksalad [4] | Plant response rating, Ducksalad [4, 22] | Plant response rating, Barnyardgrass [5, 17] | Plant response rating, Morningglory [7, 20]
